Measurements taken from patent US11814392B2, “Chromenopyridine-based compounds and methods of making and use thereof” (Rosalind Franklin University of Medicine and Science, priority 2020, dated 2023).

How the values were obtained:
NCI-H23 = assay: NCI 60 five-dose screening, NCI-H23
Protocol: (§1) The one-dose and five-dose experiments were conducted according to standard NCI protocols.
(§2) The human tumor cell lines of the cancer screening panel are grown in RPMI 1640 medium containing 5% fetal bovine serum and 2 mM L-glutamine. For a typical screening experiment, cells are inoculated into 96 well microtiter plates in 100 μL at plating densities ranging from 5,000 to 40,000 cells/well depending on the doubling time of individual cell lines. After cell inoculation, the microtiter plates are incubated at 37° C., 5% CO2, 95% air and 100% relative humidity for 24 h prior to addition of experimental drugs.
(§3) After 24 h, two plates of each cell line are fixed in situ with TCA, to represent a measurement of the cell population for each cell line at the time of drug addition (Tz). Experimental drugs are solubilized in dimethyl sulfoxide at 400-fold the desired final maximum test concentration and stored frozen prior to use. […]
(§4) Following drug addition, the plates are incubated for an additional 48 h at 37° C., 5% CO2, 95% air, and 100% relative humidity. […] Bound stain is subsequently solubilized with 10 mM trizma base, and the absorbance is read on an automated plate reader at a wavelength of 515 nm. […] Using the seven absorbance measurements [time zero, (Tz), control growth, (C), and test growth in the presence of drug at the five concentration levels (Ti)], the percentage growth is calculated at each of the drug concentrations levels. Percentage growth inhibition is calculated as: [(Ti−Tz)/(C−Tz)]×100 for concentrations for which Ti>/=Tz [(Ti−Tz)/Tz]×100 for concentrations for which Ti<Tz.
(§5) Three dose response parameters are calculated for each experimental agent. […] The drug concentration resulting in total growth inhibition (TGI) is calculated from Ti=Tz. […] Values are calculated for each of these three parameters if the level of activity is reached; however, if the effect is not reached or is exceeded, the value for that parameter is expressed as greater or less than the maximum or minimum concentration tested.

OVCAR-8 = assay: NCI 60 five-dose screening, OVCAR-8
Protocol: as §1, §2, §3, §4, §5

NCI/ADR-RES = assay: NCI 60 five-dose screening, NCI/ADR-RES; type: cell-based, human; conditions: NCI/ADR-RES (Ovarian Cancer), 48 h
NCI-H460 = assay: NCI 60 five-dose screening, NCI-H460
Protocol: (§6) The National Cancer Institute's Developmental Therapeutic preclinical 60 human cancer cell lines were used for an in vitro screen. […] The one-dose and five-dose experiments were conducted according to standard NCI protocols.
as §2
(§7) After 24 h, two plates of each cell line are fixed in situ with TCA, to represent a measurement of the cell population for each cell line at the time of drug addition (Tz). […]
as §4, §5

HCT-116 = assay: NCI 60 five-dose screening, HCT-116
Protocol: as §6, §2, §7, §4, §5

SF-268 = assay: NCI 60 five-dose screening, SF-268
Protocol: as §6, §2, §7, §4, §5

HCT-15 = assay: NCI 60 five-dose screening, HCT-15
Protocol: as §6, §2, §7, §4, §5

HOP-62 = assay: NCI 60 five-dose screening, HOP-62
Protocol: as §1, §2, §3, §4, §5

LOX IMVI = assay: NCI 60 five-dose screening, LOX IMVI; conditions: 48 h
Protocol: as §6, §2, §7, §4, §5

COLO 205 = assay: NCI 60 five-dose screening, COLO 205
Protocol: as §6, §2, §7, §4, §5

OVCAR-5 = assay: NCI 60 five-dose screening, OVCAR-5
Protocol: as §6, §2, §7, §4, §5

CCRF-CEM = assay: NCI 60 five-dose screening, CCRF-CEM; conditions: Homo sapiens, 48 h
Protocol: as §6
The human tumor cell lines of the cancer screening panel are grown in RPMI 1640 medium containing 5% fetal bovine serum and 2 mM L-glutamine. For a typical screening experiment, cells are inoculated into 96 well microtiter plates in 100 μL at plating densities ranging from 5,000 to 40,000 cells/well depending on the doubling time of individual cell lines. […]
as §4
Three dose response parameters are calculated for each experimental agent. […]

PC-3 = assay: NCI 60 five-dose screening, PC-3
Protocol: as §6, §2, §7, §4, §5

[1] = system: 60 human cancer cell lines; assay: NCI 60 cell line assay, panel summary; type: cell-based; conditions: for GI50: Homo sapiens, 60 cell
DU-145 = assay: NCI 60 five-dose screening, DU-145
Protocol: as §6, §2, §7, §4, §5

SN12C = assay: NCI 60 five-dose screening, SN12C; type: cell-based, human; conditions: SN12C (Renal Cancer), 48 h
MOLT-4 = assay: NCI 60 five-dose screening, MOLT-4
Protocol: as §6, §2, §7, §4, §5

OVCAR-4 = assay: NCI 60 five-dose screening, OVCAR-4
Protocol: as §6, §2, §7, §4, §5

HOP-92 = assay: NCI 60 five-dose screening, HOP-92
Protocol: as §1, §2, §3, §4, §5

EKVX = assay: NCI 60 five-dose screening, EKVX; conditions: 48 h
Protocol: as §6, §2, §7, §4, §5

IGROV1 = assay: NCI 60 five-dose screening, IGROV1
Protocol: as §6, §2, §7, §4, §5

T-47D = assay: NCI 60 five-dose screening, T-47D; conditions: 48 h
Protocol: as §6, §2, §7, §4, §5

SK-MEL-5 = assay: NCI 60 five-dose screening, SK-MEL-5
Protocol: as §6, §2, §7, §4, §5

786.0 = assay: NCI 60 five-dose screening, 786.0
Protocol: as §1, §2, §3, §4, §5

TK-10 = assay: NCI 60 five-dose screening, TK-10
Protocol: as §6, §2, §7, §4, §5

COc1ccc(SC2c3cc(OC)c(OC)cc3Oc3nc(N)c(C#N)c(N)c32)cc1 (stereo not drawn) [Compound 1, 2,4-diamino-7,8-dimethoxy-5-((4-methoxyphenyl)thio)-5H-chromeno[2,3-b]pyridine-3-carbonitrile]
GI50 (NCI-H23; Homo sapiens, NCI-H23, 48 h): 1450 nM
CC50 (NCI-H23; Homo sapiens, NCI-H23, 48 h, read-out: LC50): 6250 nM
TGI (NCI-H23; NCI-H23 (Non-small cell Lung), five-dose, 48 h): 3010 nM
GI50 (OVCAR-8; Homo sapiens, OVCAR-8, 48 h): 1690 nM
CC50 (OVCAR-8; Homo sapiens, OVCAR-8, 48 h, read-out: LC50): 5980 nM
TGI (OVCAR-8; OVCAR-8 (Ovarian Cancer), five-dose, 48 h): 3180 nM
GI50 (NCI/ADR-RES; Homo sapiens): 1790 nM
TGI (NCI/ADR-RES): 3690 nM
GI50 (NCI-H460; Homo sapiens, NCI-H460, 48 h): 1660 nM
CC50 (NCI-H460; Homo sapiens, NCI-H460, 48 h, read-out: LC50): > 100000 nM
TGI (NCI-H460; NCI-H460 (Non-small cell Lung), five-dose, 48 h): 4380 nM
TGI (HCT-116; HCT-116 (Colon Cancer), five-dose, 48 h): 2160 nM
GI50 (HCT-116; Homo sapiens, HCT-116, 48 h): 680 nM
CC50 (HCT-116; Homo sapiens, HCT-116, 48 h, read-out: LC50): 5340 nM
GI50 (SF-268; Homo sapiens, SF-268, 48 h): 1550 nM
CC50 (SF-268; Homo sapiens, SF-268, 48 h, read-out: LC50): 6050 nM
TGI (SF-268; SF-268 (CNS Cancer), five-dose, 48 h): 3070 nM
TGI (HCT-15; HCT-15 (Colon Cancer), five-dose, 48 h): 2230 nM
GI50 (HCT-15; Homo sapiens, HCT-15, 48 h): 970 nM
CC50 (HCT-15; Homo sapiens, HCT-15, 48 h, read-out: LC50): 5020 nM
TGI (HOP-62; HOP-62 (Non-small cell Lung), five-dose, 48 h): 3090 nM
GI50 (HOP-62; Homo sapiens, HOP-62, 48 h): 1700 nM
CC50 (HOP-62; Homo sapiens, HOP-62, 48 h, read-out: LC50): 5610 nM
GI50 (LOX IMVI; Homo sapiens, LOX IMVI): 580 nM
CC50 (LOX IMVI; Homo sapiens, LOX IMVI, read-out: LC50): 4370 nM
TGI (LOX IMVI; LOX IMVI (Melanoma), five-dose): 1860 nM
TGI (COLO 205; COLO 205 (Colon Cancer), five-dose, 48 h): 2650 nM
GI50 (COLO 205; Homo sapiens, COLO 205, 48 h): 1290 nM
CC50 (COLO 205; Homo sapiens, COLO 205, 48 h, read-out: LC50): 5430 nM
GI50 (OVCAR-5; Homo sapiens, OVCAR-5, 48 h): 1750 nM
CC50 (OVCAR-5; Homo sapiens, OVCAR-5, 48 h, read-out: LC50): 6660 nM
TGI (OVCAR-5; OVCAR-5 (Ovarian Cancer), five-dose, 48 h): 3390 nM
GI50 (CCRF-CEM): 310 nM
CC50 (CCRF-CEM; read-out: LC50): > 100000 nM
GI50 (PC-3; Homo sapiens, PC-3, 48 h): 1160 nM
CC50 (PC-3; Homo sapiens, PC-3, 48 h, read-out: LC50): 5370 nM
TGI (PC-3; PC-3 (Prostate Cancer), five-dose, 48 h): 2490 nM
GI50 ([1]; at least one studied cell line of each of leukemia, colon cancer, CNS cancer, melanoma, ovarian cancer, renal cancer, and breast cancer): < 1000 nM
GI50 ([1]; every leukemia cell line studied): < 500 nM
anti-proliferative activity ([1]; nine major cancer cell lines, initial single dose and five dose screening (FIG. 2, FIG. 3)): anti-proliferative activity
TGI (DU-145; DU-145 (Prostate Cancer), five-dose, 48 h): 3110 nM
GI50 (DU-145; Homo sapiens, DU-145, 48 h): 1730 nM
CC50 (DU-145; Homo sapiens, DU-145, 48 h, read-out: LC50): 5590 nM
GI50 (SN12C; Homo sapiens): 1060 nM
TGI (SN12C): 2490 nM
GI50 (MOLT-4; Homo sapiens, MOLT-4, 48 h): 310 nM
CC50 (MOLT-4; Homo sapiens, MOLT-4, 48 h, read-out: LC50): > 100000 nM
TGI (MOLT-4; MOLT-4 (Leukemia), five-dose, 48 h): 1600 nM
GI50 (OVCAR-4; Homo sapiens, OVCAR-4, 48 h): 1330 nM
CC50 (OVCAR-4; Homo sapiens, OVCAR-4, 48 h, read-out: LC50): 5590 nM
TGI (OVCAR-4; OVCAR-4 (Ovarian Cancer), five-dose, 48 h): 2730 nM
TGI (HOP-92; HOP-92 (Non-small cell Lung), five-dose, 48 h): 2720 nM
GI50 (HOP-92; Homo sapiens, HOP-92, 48 h): 1240 nM
CC50 (HOP-92; Homo sapiens, HOP-92, 48 h, read-out: LC50): 5990 nM
TGI (EKVX; EKVX (Non-small cell Lung), five-dose): 3340 nM
GI50 (EKVX; Homo sapiens, EKVX): 1740 nM
CC50 (EKVX; Homo sapiens, EKVX, read-out: LC50): 6420 nM
GI50 (IGROV1; Homo sapiens, IGROV-1, 48 h): 760 nM
CC50 (IGROV1; Homo sapiens, IGROV-1, 48 h, read-out: LC50): 6420 nM
TGI (IGROV1; IGROV1 (Ovarian Cancer), five-dose, 48 h): 2370 nM
GI50 (T-47D; Homo sapiens, T47D): 1300 nM
CC50 (T-47D; Homo sapiens, T47D, read-out: LC50): 8430 nM
TGI (T-47D; T-47D (Breast Cancer), five-dose): 3310 nM
GI50 (SK-MEL-5; Homo sapiens, SK-MEL-5, 48 h): 1500 nM
CC50 (SK-MEL-5; Homo sapiens, SK-MEL-5, 48 h, read-out: LC50): 5330 nM
TGI (SK-MEL-5; SK-MEL-5 (Melanoma), five-dose, 48 h): 2820 nM
TGI (786.0; 786.0 (Renal Cancer), five-dose, 48 h): 1730 nM
GI50 (786.0; Homo sapiens, 786-0, 48 h): 490 nM
CC50 (786.0; Homo sapiens, 786-0, 48 h, read-out: LC50): 4200 nM
GI50 (TK-10; Homo sapiens, TK-10, 48 h): 1630 nM
CC50 (TK-10; Homo sapiens, TK-10, 48 h, read-out: LC50): 5550 nM
TGI (TK-10; TK-10 (Renal Cancer), five-dose, 48 h): 3010 nM
